Results: patent publication US20150218172A1, “Pyrrolo[2,3-D]Pyrimidine Tropomyosin-Related Kinase Inhibitors” (PFIZER LIMITED, priority 2012, published 2015)

Target: T1, TrkA (Homo sapiens, UniProt P04629)
T1 construct: aa 441-796; His; purchased Invitrogen PV3144
Experiment: Isolated TRK enzyme assay (HTRF KinEASE-TK kit), PV3144 TrkA enzyme assay
Assay type: biochemical
Conditions: not given
Outline: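 Recombinant His-tagged cytoplasmic domain of human TrkA, preactivated with ATP for 20 min, then 20 min with compound before biotinylated TK substrate (1 uM final) at room temperature. HTRF read at 665/620 nm; % inhibition normalised to reference-compound and DMSO controls, IC50 from sigmoid fit, mean of replicates.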

T1 sequence (P04629 441-796): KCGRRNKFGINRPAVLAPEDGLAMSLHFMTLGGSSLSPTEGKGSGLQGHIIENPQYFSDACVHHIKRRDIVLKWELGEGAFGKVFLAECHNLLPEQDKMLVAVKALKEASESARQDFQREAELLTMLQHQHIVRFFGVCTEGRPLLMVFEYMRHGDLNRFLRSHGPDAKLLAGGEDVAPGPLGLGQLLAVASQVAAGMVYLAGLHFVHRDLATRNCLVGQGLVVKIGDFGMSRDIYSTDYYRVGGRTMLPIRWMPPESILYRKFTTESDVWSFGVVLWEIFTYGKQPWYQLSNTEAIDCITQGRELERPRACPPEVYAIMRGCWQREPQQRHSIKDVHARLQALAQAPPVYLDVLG

`Cc1cc(C)n(CC(=O)Nc2cc(C(=O)c3cn(CC4CC4)c4ncncc34)ccn2)n1` [Example 176, N-(4-{[7-(Cyclopropylmethyl)-7H-pyrrolo[2,3-d]pyrimidin-5-yl]carbonyl}pyridin-2-yl)-2-(3,5-dimethyl-1H-pyrazol-1-yl)acetamide] was tested. Which IC50 did it give?
The IC50 was 107 nM.

Same assay, conditions: PV3144 TrkA enzyme assay, recombinant His-tagged cytoplasmic domain aa 441-796, 4 nM enzyme, 40 uM ATP; arithmetic mean where more than one reading; read-out: Trka enzyme (IC50)

How did the IC50 turn out when `CC(C)(C)n1cc(C(=O)c2cc(NC(=O)Cn3ccc(C4CC4)n3)ccn2)c2cncnc21` [Example 40, N-{2-[(7-tert-butyl-7H-pyrrolo[2,3-d]pyrimidin-5-yl)carbonyl]pyridin-4-yl}-2-(3-cyclopropyl-1H-pyrazol-1-yl)acetamide] was run?
The IC50 was 8.38 nM.

With `CC(C)n1cc(C(=O)c2cc(NC(=O)Cn3cc(C4CC4)nn3)ccn2)c2cnc(N)nc21` [Example 91, N-(2-{[2-amino-7-(propan-2-yl)-7H-pyrrolo[2,3-d]pyrimidin-5-yl]carbonyl}pyridin-4-yl)-2-(4-cyclopropyl-1H-1,2,3-triazol-1-yl)acetamide] as the compound, how does the IC50 read?
Its IC50 is 44.5 nM.

`Cc1cc(C)n(CC(=O)Nc2cc(C(=O)c3cn(CC(C)(C)O)c4ncncc34)ccn2)n1` [Example 127, 2-(3,5-dimethyl-1H-pyrazol-1-yl)-N-(4-{[7-(2-hydroxy-2-methylpropyl)-7H-pyrrolo[2,3-d]pyrimidin-5-yl]carbonyl}pyridin-2-yl)acetamide] was tested. Which IC50 did it give?
The IC50 was 1110 nM.

Which IC50 does the source give for `Cc1cn(CC(=O)Nc2cc(C(=O)c3cn(C(C)C)c4ncncc34)ccn2)nn1` [Example 121, 2-(4-methyl-1H-1,2,3-triazol-1-yl)-N-(4-{[7-(propan-2-yl)-7H-pyrrolo[2,3-d]pyrimidin-5-yl]carbonyl}pyridin-2-yl)acetamide] here?
Its IC50 is 328 nM.

`O=C(Cc1cccc(OC(F)(F)F)c1)Nc1ccnc(C(=O)c2cn(C(CO)CO)c3ncncc23)c1` [Example 97, N-(2-{[7-(1,3-dihydroxypropan-2-yl)-7H-pyrrolo[2,3-d]pyrimidin-5-yl]carbonyl}pyridin-4-yl)-2-[3-(trifluoromethoxy)phenyl]acetamide] was tested. Which IC50 did it give?
The IC50 was 876 nM.

With `N#Cc1ccc(CC(=O)Nc2cc(C(=O)c3cn([C@H]4CC[C@@H](O)CC4)c4ncncc34)ccn2)cc1` [Example 5, 2-(4-cyanophenyl)-N-(4-{[7-(cis-4-hydroxycyclohexyl)-7H-pyrrolo[2,3-d]pyrimidin-5-yl]carbonyl}pyridin-2-yl)acetamide] as the compound, how does the IC50 read?
Its IC50 is 75.6 nM.

How did the IC50 turn out when `CC(C)n1cc(C(=O)c2ccnc(NC(=O)Cc3cccc(OC(F)(F)F)c3)c2)c2cncnc21` [Example 154, N-(4-{[7-(propan-2-yl)-7H-pyrrolo[2,3-d]pyrimidin-5-yl]carbonyl}pyridin-2-yl)-2-[3-(trifluoromethoxy)phenyl]acetamide] was run?
Its IC50 is 12.4 nM.

Which IC50 does the source give for `CC1(n2cc(C(=O)c3cc(NC(=O)Cc4ccc(F)cn4)ccn3)c3cncnc32)COC1` [Example 172, 2-(5-fluoropyridin-2-yl)-N-(2-{[7-(3-methyloxetan-3-yl)-7H-pyrrolo[2,3-d]pyrimidin-5-yl]carbonyl}pyridin-4-yl)acetamide] here?
The IC50 was 1080 nM.

For `CC(C)n1cc(C(=O)c2ccnc(NC(=O)Cc3ccccc3)c2)c2cncnc21` [Example 149, 2-phenyl-N-(4-{[7-(propan-2-yl)-7H-pyrrolo[2,3-d]pyrimidin-5-yl]carbonyl}pyridin-2-yl)acetamide], which IC50 is on record?
Its IC50 is 171 nM.

Which IC50 does the source give for `CC(C)n1cc(C(=O)c2cc(NC(=O)Cc3ccc(Cl)cc3)ccn2)c2cncnc21` [Example 47, 2-(4-Chloro-phenyl)-N-[2-(7-isopropyl-7H-pyrrolo[2,3-d]pyrimidine-5-carbonyl)-pyridin-4-yl]-acetamide] here?
The IC50 was 5.71 nM.

Which IC50 does the source give for `COCc1cn(CC(=O)Nc2cc(C(=O)c3cn(C(C)C)c4ncncc34)ccn2)nn1` [Example 117, 2-[4-(methoxymethyl)-1H-1,2,3-triazol-1-yl]-N-(4-{[7-(propan-2-yl)-7H-pyrrolo[2,3-d]pyrimidin-5-yl]carbonyl}pyridin-2-yl)acetamide] here?
Its IC50 is 1550 nM.
